{
  "source": "patent US8409600B2",
  "about": "“Methods for prevention and/or treatment of capsular contracture” (J&E Solutions, LLC, priority 2009, dated 2013)",
  "tested_on": "breast capsular contracture",
  "test": "Clinical cases: topical treatment of breast capsular contracture (Baker grade)",
  "format": "in vivo, human",
  "conditions": "Patient #1, Aleve and massage after first revision (bilateral Grade 3 capsular contracture)",
  "from_the_text": "The methods of the present invention for prevention of capsular contracture comprise topical application of the composition using the following steps: • Wash and dry the affected area (that is, the skin surrounding the implant or the skin over the capsular contracture) prior to use. • Apply the composition daily (use sparingly) with vigorous massage to affected area. If necessary, exert compression or pressure when massaging to break up existing capsule. Enhanced absorption is obtained with application of the composition following a hot shower. Occlusive dressing (hydrogel), or tight clothing (sports bras), will also enhance the result. Continued daily use will yield optimal results. […] Optimal results are best maintained with daily continued application. One particularly useful embodiment of the invention involves the use of the topical compositions for the treatment/prevention of capsular contracture in breast surgery (e.g., breast implants). There are four grades of breast capsular contracture—Baker grades I through IV. The Baker grading is as follows: • Grade I—the breast is normally soft and looks natural • Grade II—the breast is a little firm but looks normal • Grade III—the breast is firm and looks abnormal • Grade IV—the breast is hard, painful, and looks abnormal. • of developed or is at risk of developing capsular contracture a topical composition. Clinical Cases Patient #1",
  "data": [
    {"smiles": "COc1ccc2cc([C@H](C)C(=O)O)ccc2c1", "note": "[Aleve, naproxen sodium]", "values": [
      {"measurement": "response of capsular contracture to treatment", "result": "without result"}
    ]}
  ]
}
